Measured values: patent US5064953A, “Intermediates cephalosporin derivatives” (Mochida Pharmaceutical Co., Ltd., priority 1983, dated 1991)
≈ marks a conversion by molar mass, not a printed value.

How the values were obtained:
[1] = tested on: Staphylococcus 242 (Methicillin-resistant strain); assay: Protection ability against systemic infection; format: in vivo; conditions: iv, 168 h, ICR mice, intraperitoneal infection, compound intravenously 1 hour after infection, survival at 1 week
Procedure: (§1) Protection ability against systemic infection was determined as follows. An aqueous suspension of test bacteria was intraperitoneally injected into groups of 10 four week old ICR mice. One hour after the infection, test compounds were intravenously administered. The number of surviving mice was counted 1 week after injection to determine the dose at which 50% of the test animals were alive (ED50 :mg/kg).
*Methicillin-resistant strain

[2] = LD50 determined in accordance with the Probit method; conditions: in vivo, iv
Procedure: Next, LD50 of representative examples of the compounds of the present invention is shown in Table 3 wherein LD50 was determined in accordance with the Probit method.

[3] = tested on: Staphylococcus aureus Smith; assay: Antibacterial activity in vitro, agar plate dilution method (MIC); format: cell-based; conditions: 10^6 cells/ml, Mueller Hinton agar, 37° C., 20 hours
Procedure: (§2) Antibacterial activity in vitro was determined in accordance with the agar plate dilution method. A platinum loop each of test bacteria (10^6 cells/ml), cultured in Mueller Hinton broth, was inoculated on Mueller Hinton agar plates which contained test compounds at various concentrations. After cultivating at 37° C. for 20 hours, the minimum inhibitory concentration (MIC μg/ml) was determined.

[4] = tested on: Klebsiella pneumoniae IF03317; assay: as above; format: cell-based; conditions: 10^6 cells/ml, Mueller Hinton agar, 37° C., 20 hours
Procedure: as §2

[5] = tested on: Escherichia coli 67; assay: as above; format: cell-based; conditions: 10^6 cells/ml, Mueller Hinton agar, 37° C., 20 hours
Procedure: as §2

[6] = tested on: Proteus morganii IF03848; assay: as above; format: cell-based; conditions: Morganella morganii, 10^6 cells/ml, Mueller Hinton agar, 37° C., 20 hours
Procedure: as §2

[7] = tested on: Serratia marcescens IF03759; assay: as above; format: cell-based; conditions: 10^6 cells/ml, Mueller Hinton agar, 37° C., 20 hours
Procedure: as §2

[8] = tested on: Pseudomonas aeruginosa IF03445; assay: as above; format: cell-based; conditions: 10^6 cells/ml, Mueller Hinton agar, 37° C., 20 hours
Procedure: as §2

[9] = tested on: Klebsiella pneumoniae IF03317; assay: Protection ability against systemic infection; format: in vivo; conditions: IF03317, iv, 168 h, ICR mice, intraperitoneal infection, compound intravenously 1 hour after infection, survival at 1 week
Procedure: as §1

[10] = tested on: Escherichia coli 67; assay: Protection ability against systemic infection; format: in vivo; conditions: Escherichia coli, 67, iv, 168 h; ICR mice, intraperitoneal infection, compound intravenously 1 hour after infection, survival at 1 week
Procedure: as §1

[11] = tested on: Pseudomonas aeruginosa IF03445; assay: Protection ability against systemic infection; format: in vivo; conditions: IF03445, iv, 168 h, ICR mice, intraperitoneal infection, compound intravenously 1 hour after infection, survival at 1 week
Procedure: as §1

Row | Compound | ED50 [1] [mg/kg] | LD50 [2] [mg/kg] | MIC [3] [µg/mL] | MIC [4] [µg/mL] | MIC [5] [µg/mL] | MIC [6] [µg/mL] | MIC [7] [µg/mL] | MIC [8] [µg/mL] | ED50 [9] [mg/kg] | ED50 [10] [mg/kg] | ED50 [11] [mg/kg]
1 | Cc1nnc(SCC2=C(C(=O)O)N3C(=O)[C@@H](NC(=O)Cn4cnnn4)[C@H]3SC2)s1 [CEZ, reference compound] | 74 | – | – | – | – | – | – | – | – | – | –
2 | Cc1cc(SCC2=C(C(=O)O)N3C(=O)[C@@H](NC(=O)/C(=N\OC(=O)c4cccs4)c4csc(N)n4)[C@H]3SC2)n2nc(C(=O)O)nc2n1 [Compound 10, (6R,7R)-7-[2-(2-amino-4-thiazolyl)-2-[Z-(2-thiophenecarbonyl)oxyimino]acetamido]-3-[(2-carboxy-5-methyl-s-triazolo[1,5-a]pyrimidin-7-yl)-thiomethyl]-8-oxo-5-thia-1-azabicyclo[4.2.0]-oct-2-ene-2-carboxylic acid] | 8.01 | > 1000 | 0.39 (≈ 0.556 µM) | < 0.05 | 0.1 (≈ 0.143 µM) | 0.39 (≈ 0.556 µM) | 0.1 (≈ 0.143 µM) | 50 (≈ 71.3 µM) | – | – | –
3 | CO/N=C(\C(=O)N[C@@H]1C(=O)N2C(C(=O)O)=C(CSc3cc(C(=O)O)nc4ncnn34)CS[C@H]12)c1csc(N)n1 [Compound 6, (6R,7R)-7-[2-(2-amino-4-thiazolyl)-2-(Z-methoxyimino)acetamido]-3-[(5-carboxy-s-triazolo[1,5-a]pyrimidin-7-yl)thiomethyl]-8-oxo-5-thia-1-azabicyclo [4.2.0]oct-2-ene-2-carboxylic acid] | – | > 1000 | 1.57 (≈ 2.65 µM) | < 0.05 | < 0.05 | 0.2 (≈ 0.338 µM) | 0.2 (≈ 0.338 µM) | 6.25 (≈ 10.6 µM) | 0.1 | 0.8 | 230
4 | Cc1cc(SCC2=C(C(=O)O)N3C(=O)[C@@H](NC(=O)/C(=N\O)c4csc(N)n4)[C@H]3SC2)n2nc(C(=O)O)nc2n1 [Compound 8, (6R,7R)-7-[2-(2-amino-4-thiazolyl)-2-(Z-hydroxyimino)acetamido]3-[(2-carboxy-5-methyl-s-triazolo[1,5-a]pyrimidin-7-yl)thiomethyl]-8-oxo-5-thia-1-azabicyclo[4.2.0]oct-2-ene-2-carboxylic acid] | 3.55 | > 1000 | 0.78 (≈ 1.32 µM) | < 0.05 | 0.2 (≈ 0.338 µM) | 0.39 (≈ 0.659 µM) | 0.2 (≈ 0.338 µM) | > 100 | 7.68 | – | –
5 | Cc1cc(SCC2=C(C(=O)O)N3C(=O)[C@@H](NC(=O)/C(=N\OC(=O)c4ccco4)c4csc(N)n4)[C@H]3SC2)n2nc(C(=O)O)nc2n1 [Compound 9, (6R,7R)-7-[2-(2-amino-4-thiazolyl)-2-[Z-(2-furancarbonyl)oxyimino]acetamido]-3-[(2-carboxy-5-methyl-s-triazolo[1,5-a]pyrimidin-7-yl)thiomethyl]-8-oxo-5-thia-1-azabicyclo[4.2.0]oct-2-ene-2-carboxylic acid] | 2.11 | > 1000 | 0.39 (≈ 0.569 µM) | < 0.05 | < 0.05 | 0.2 (≈ 0.292 µM) | < 0.05 | 100 (≈ 146 µM) | 7.68 | – | –
6 | CO/N=C(\C(=O)N[C@@H]1C(=O)N2C(C(=O)O)=C(CSc3cc(C)nc4ncnn34)CS[C@H]12)c1csc(N)n1 [Compound 1, (6R,7R)-7-[2-(2-amino-4-thiazolyl)-2-(Z-methoxyimino)acetamido]-3-[(5-methyl-s-triazolo[1,5-a]pyrimidin-7-yl)thiomethyl]-8-oxo-5-thia-1-azabicyclo[4.2.0] oct-2-ene-2-carboxylic acid] | – | > 1000 | 1.57 (≈ 2.8 µM) | < 0.05 | < 0.05 | 0.78 (≈ 1.39 µM) | 0.2 (≈ 0.356 µM) | 50 (≈ 89 µM) | 0.1 | 0.7 | 780
7 | CO/N=C(\C(=O)N[C@@H]1C(=O)N2C(C(=O)O)=C(CSc3cc(C)nc4nc(C(=O)O)nn34)CS[C@H]12)c1csc(N)n1 [Compound 2, (6R,7R)-7-[2-(2-amino-4-thiazolyl)-2-(Z-methoxyimino)acetamido]-3-[(2-carboxy-5-methyl-s-triazolo[1,5-a]pyrimidin-7-yl)thiomethyl]-8-oxo-5-thia-1-azabicyclo[4.2.0]oct-2-ene-2-carboxylic acid] | – | > 1000 | 1.57 (≈ 2.59 µM) | < 0.05 | < 0.05 | 0.2 (≈ 0.33 µM) | < 0.05 | 12.5 (≈ 20.6 µM) | 0.1 | 0.8 | 360
8 | Cc1cc(SCC2=C(C(=O)O)N3C(=O)[C@@H](NC(=O)/C(=N\OC(=O)c4ccc5c(c4)OCO5)c4csc(N)n4)[C@H]3SC2)n2nc(C(=O)O)nc2n1 [Compound 12] | – | – | 0.78 (≈ 1.05 µM) | 0.39 (≈ 0.527 µM) | 0.39 (≈ 0.527 µM) | 0.78 (≈ 1.05 µM) | 0.39 (≈ 0.527 µM) | 25 (≈ 33.8 µM) | – | – | –
9 | CO/N=C(\C(=O)N[C@@H]1C(=O)N2C(C(=O)O)=C(CSc3c(C(=O)O)cnc4nc(C(=O)O)nn34)CS[C@H]12)c1csc(N)n1 [Compound 7, (6R,7R)-7-[2-(2-amino-4-thiazolyl)-2-(Z-methoxyimino)acetamido]-3-[(2,6-dicarboxy-s-triazolo[1,5-a]pyrimidin-7-yl)thiomethyl]-8-oxo-5-thia-1-azabicyclo[4.2.0]oct-2-ene-2-carboxylic acid] | – | – | 12.5 (≈ 19.7 µM) | < 0.05 | < 0.05 | 0.39 (≈ 0.614 µM) | 0.39 (≈ 0.614 µM) | > 100 | – | – | –
10 | Cc1cc(SCC2=C(C(=O)O)N3C(=O)[C@@H](NC(=O)/C(=N\OC(=O)c4ccc[nH]4)c4csc(N)n4)[C@H]3SC2)n2nc(C(=O)O)nc2n1 [Compound 26, (6R,7R)-7-[2-(2-amino-4-thiazolyl)-2-[Z-(2-pyrrolecarbonyl)oxyimino]acetamido]-3-[(2-carboxy-5-methyl-s-triazolo[1,5-a]pyrimidin-7-yl)thiomethyl]-8-oxo-5-thia-1-azabicyclo[4.2.0]oct-2-ene-2-carboxylic acid] | – | – | 1.57 (≈ 2.29 µM) | < 0.05 | 0.2 (≈ 0.292 µM) | 0.78 (≈ 1.14 µM) | 0.2 (≈ 0.292 µM) | 25 (≈ 36.5 µM) | – | – | –
11 | Cc1cc(SCC2=C(C(=O)O)N3C(=O)[C@@H](NC(=O)/C(=N\OC(=O)c4cccnc4)c4csc(N)n4)[C@H]3SC2)n2nc(C(=O)O)nc2n1 [Compound 11, (6R,7R)-7-[2-(2-amino-4-thiazolyl)-2-[Z-(3-pyridinecarbonyl)oxyimino]acetamido]-3-[(2-carboxy-5-methyl-s-trizolo[1,5-a]pyrimidin-7-yl)thiomethyl]-8-oxo-5-thia-1-azabicyclo[4.2.0]oct-2-ene-2-carboxylic acid] | – | – | 0.39 (≈ 0.56 µM) | < 0.05 | < 0.05 | 0.1 (≈ 0.144 µM) | < 0.05 | > 100 | – | – | –
